Experiment [1] concerns the target T1, NhCam1 (cyclic oligoadenylate-activated membrane protein 1; WP_013033759) (Nitrosococcus halophilus, UniProt D5BXZ3, T97A).
T1 construct: gene Nhal_2839; CARF domain, residues 67–206
Kind of experiment: ITC. Type of experiment: binding.

Experiment [2] concerns the target T2, NhCam1 (cyclic oligoadenylate-activated membrane protein 1; WP_013033759) (Nitrosococcus halophilus, UniProt D5BXZ3).
T2 construct: gene Nhal_2839; CARF domain, residues 67–206 (ITC; Methods: 66–206); residues 42–206 (crystal); homodimer, one ligand per dimer
T2 sequence (D5BXZ3 67-206): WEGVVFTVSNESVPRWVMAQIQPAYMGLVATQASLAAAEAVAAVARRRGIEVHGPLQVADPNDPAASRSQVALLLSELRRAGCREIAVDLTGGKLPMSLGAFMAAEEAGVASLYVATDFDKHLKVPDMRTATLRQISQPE
Kind of experiment: ITC; […] Å X-ray crystal structure. It is filed as binding. (In general: Isothermal titration calorimetry measures the heat released or taken up as one component is titrated into another.)

For experiment [3], the target named is T3, NhCam1 (cyclic oligoadenylate-activated membrane protein 1; WP_013033759) (Nitrosococcus halophilus, UniProt D5BXZ3, T183A/Y180A).
T3 construct: gene Nhal_2839; CARF domain, residues 67–206
Kind of experiment: ITC. It is filed as binding.

The target in experiment [4] is T4, NhCam1 (cyclic oligoadenylate-activated membrane protein 1; WP_013033759) (Nitrosococcus halophilus, UniProt D5BXZ3, N76A/S75A).
T4 construct: gene Nhal_2839; CARF domain, residues 67–206
Kind of experiment: ITC. It is filed as binding.

In experiment [5] the target is T5, NhCam1 (cyclic oligoadenylate-activated membrane protein 1; WP_013033759) (Nitrosococcus halophilus, UniProt D5BXZ3, M194A/P192A/V79A).
T5 construct: gene Nhal_2839; CARF domain, residues 67–206
Kind of experiment: ITC. Type of experiment: binding.

In experiment [6] the target is MGSS–His6–TEV–NhCam1 (full-length NhCam1) (Nitrosococcus halophilus Nc4). Kind of experiment: SEC-MALS; full-length Cam1 in DDM micelles, conjugate analysis; 25 mM Tris pH 8, 500 mM NaCl, 2 mM β-mercaptoethanol, 0.02% DDM.
Experiment [7] concerns the target MvCam1-His (Methylomarium vadi). Kind of experiment: cross-linking; in vivo in S. aureus, 2 mM DSS and BMH, 1 h at room temperature, with or without aTc; Western blot of lysates with anti-His6. For orientation: A western blot detects proteins with antibodies after separation by electrophoresis.
The target of experiment [8] is NhCam1–His (Nitrosococcus halophilus Nc4). Described as above.
The target of experiment [9] is gpCam1-His (unknown Gammaproteobacterium). The experiment is described as above.

“And” between values parts separate entries of the source, which are not always exact repeats. Equal entries are not always repeated.

Broadly, the Kd is the equilibrium constant for the complex coming apart. A high value points to lower affinity. Broadly, the stoichiometry N is the number of molecules, sites or subunits per partner or assembly.

`Nc1ncnc2c1ncn2[C@@H]1O[C@@H]2COP(=O)(O)O[C@H]3[C@@H](O)[C@H](n4cnc5c(N)ncnc54)O[C@@H]3COP(=O)(O)O[C@H]3[C@@H](O)[C@H](n4cnc5c(N)ncnc54)O[C@@H]3COP(=O)(O)O[C@H]3[C@@H](O)[C@H](n4cnc5c(N)ncnc54)O[C@@H]3COP(=O)(O)O[C@H]2[C@H]1O` [cA4]: the Kd in experiment [1] amounted to 3.74 µM; in experiment [2] it was 0.012 µM; in experiment [3], 4.5 µM; in experiment [4], 4 µM; in experiment [5] it was 2.1 µM. In the case of “MGSS–His6–TEV–NhCam1 (full-length NhCam1) (natural protein)”, the stoichiometry N in [6] came to 4. MvCam1-His (natural protein): in experiment [7], the stoichiometry N was 2 and 4.

With NhCam1–His (natural protein), the stoichiometry N in experiment [8] was 2 and 4.

With gpCam1-His (natural protein), the stoichiometry N in experiment [9] is 2 and 4.

Source of the values: publication PMC10808066, “The CRISPR effector Cam1 mediates membrane depolarization for phage defence” (Nature, 2024).
